# Data from US12178838B2, “Synthetic neuromodulatory peptides” (Lactocore, Inc., priority 2019, dated 2024).
# Where “and” joins values, the source holds several entries; their conditions need not be identical. Equal values may be shown once. Read-outs that look alike come from different tables or passages of the source. No end group written: not given here.
# Tests used:
# [1] = test system: FQSE (SEQ ID NO:10)-specific binding sites in the rat cortex; test: Radioligand analysis with [3H] FQSE on rat cortex membranes
# Description: After decapitation, the tissues were immediately frozen in liquid nitrogen and stored in a low-temperature refrigerator at −80° C. On the day of the experiment, brain tissue (cortex, about 300 mg) was homogenized in a Teflon-glass Potter homogenizer 1:25 W:V in the buffer (50 mM Tris-HCl, pH 7.4). The homogenate was centrifuged at 40,000 g for 20 min. The obtained precipitate was homogenized in a buffer (50 mM Tris-HCl; pH=7.4) and centrifuged again at 40,000 g for 20 min. A similar procedure was performed again. The precipitate was resuspended in 15 ml of the same buffer and used for the radioligand analysis.
# The incubation mixture (final volume 0.5 ml) contained 50 μl […]
# At the end of the incubation, the samples were filtered through Ge/C glass fiber filters (Whatman) previously moistened with 0.3% polyethyleneimine for 2 hours at room temperature. Each tube was washed twice with cold buffer, then the filters were washed twice with the same volume of buffer.
# The filters were air-dried and transferred to scintillation vials. Filters were poured with 5 ml of toluene-based scintillation liquid (4 g PPO, 0.2 g POPOP per liter of toluene).
# To construct the curves of the radioactive ligand's displacement each concentration of the test substance was taken in 3 replications. […]
# zebrafish (Danio rerio) [2] = test: Open Field test in zebrafish; format: in vivo; settings: ip; for average distance covered / track length (locomotor activity): diazepam 1.25, 5, 10, fluvoxamine 5, 10, ACZ-10 0.6, BCM-7 5, FQSE 1 and 10, DKTE 1, WDQV 10 mg/kg; for time spent at the surface of the aquarium: fluvoxamine 5 and 10 mg/kg, FQSE 1 mg/kg
# Description: (§1) The tested substances were injected into the zebrafish intraperitoneally (ip) using an insulin syringe (0.5 ml, 30 g) 10 minutes before the test. The saline solution (0.9% NaCl) was used as a solvent. Anesthesia and immobilization of the animals were achieved by placing them in water at a temperature of 10° C. Control group fish received intraperitoneal injections of an equivalent volume of solvent, also after going through a pre-cooling procedure.
# (§2) A base, back, and side walls of the aquarium were made of matte black plastic; the front panel (shorter wall) was made of transparent Plexiglas. The setup for the Light/Dark preference test consisted of three main parts: a launch compartment, a light compartment made of white plastic, and a dark compartment made of black plastic. The bright lighting in these tests was provided by a lamp on a stand (LED lamp PL, 11 W, light flux≈600 Lm, about 500 Lx directly above the water surface), which was attached to the upper part of the aquarium.
# (§3) The open field test was performed as described in Maximino et al., 2013. A video recording (background shooting) was started 20-30 seconds before the zebrafish were placed in the test aquarium. The experimental zebrafish was placed in an open field (“OF”) aquarium using a net. The recording was being conducted for five minutes. The test was carried out using EthoVision XT software package (Noldus). The software registered the distance covered by the animal, its speed, the number of visits to the three conventional zones of the aquarium: “bottom,” “center,” and […] (lower, middle, and upper thirds of the aquarium, respectively), the time spent in these zones, and the latency of a visit to the middle and to the surface of the aquarium.
# Sprague Dawley rats = test: Forced swim test in rats, intranasal FQSE; format: in vivo; settings: FQSE 0.5 mg/kg i.n.; ketamine 10 mg/kg IP
# Description: The five doses of FQSE (SEQ ID NO:10) (0.01, 0.1, 0.5, 1 and 3 mg/kg, CS, Menlo Park, CA) were prepared fresh for each test day in sterile saline and administered intranasally (i.n.) 30 minutes prior to testing. Fifteen rats per group per peptide dose were tested with the exception that there were twenty rats in the vehicle (0) group. Each dose was administered in a randomized order across rats. Prior to dosing, the rats were lightly anesthetized (till loss of righting reflex) with isoflurane (2.5%, 0.5 L/min oxygen), placed in the recumbent position, then a thin plastic pipette (Fischer Scientific) inserted into the nares and peptide administered at a volume of 15-20 uL per nares. Individuals performing the behavioral tests were blind to drug treatment.
# Rats were first allowed to acclimate to the testing room for 30 minutes while in their home cage. The forced swim tests were conducted using Plexiglas cylinders (10 in width, 18 in height) filled with water maintained at approximately 25° C. On day 1, rats were first habituated (15 minutes) to the forced swim apparatus by being placed into the water facing the cylinder wall. Forced swim tests (5 minutes) occurred the following day. Activity was recorded by digital cameras and analyzed with specialized software (Ethovision XT12).
# Statistical significance was set at P<0.05.
# zebrafish (Danio rerio) [3] = test: Light/dark box test in zebrafish; format: in vivo; settings: ip
# Description: as §1, §2
# (§4) The light/dark box (LDB) test was performed as described in Maximino et al., 2011. The zebrafish was placed in a light compartment of an LDB using a net, the camera was switched on simultaneously, and the behavior of the zebrafish was recorded for 5 minutes. The video was processed using RealTimer (OpenScience). During the processing of records, the residence time and the number of visits to the light and dark compartments of the test setup were recorded, as well as the latent period of visiting both compartments.
# zebrafish (Danio rerio) [4] = test: Shoaling behavior test in zebrafish; format: in vivo; settings: ip; for time spent in the compartment near the shoal: ACZ-10 0.6 mg/kg
# Description: as §1
# A Plexiglas container with a removable partition (shown in FIG. 4) was used as a setup for investigating the shoaling behavior of zebrafish. A shoal of 5 adult Danio rerio specimens was placed into in the small compartment; and the test fish was placed in a large compartment. Diffused lighting in this installation was provided by the usual lighting of the room (about 200 Lx).
# (§5) The shoaling behavior test was performed as described in Parker et al., 2014. (Parker et al. (2014) The utility of zebrafish to study the mechanisms by which ethanol affects social behavior and anxiety during early brain development. Prog. Neuro-Psychopharmacology Biol. Psychiatry. 94-100). The video recording began simultaneously with placing the zebrafish in the set-up and recorded for 5 minutes. The videos were processed using RealTimer (OpenScience Ltd., Moskow, Russia). During the processing of the records, the residence time and the number of visits to the three conventional zones of the aquarium wall (near the “shoal” in the middle of the aquarium, and near the opposite side; all three were equal in size) were recorded.
# zebrafish (Danio rerio) [5] = test: Zebrafish behavioral tests taken together (open field, light/dark box, shoaling); format: in vivo; settings: ip; for basic behavioral parameters in open field, light/dark box and shoaling tests: FLPY 1 and 10 mg/kg, DKTE 10 mg/kg, WDQV 1 mg/kg
# Description: as §1, §3, §5, §4
# [6] = diazepam 1.25 mg/kg, BCM-7 5 mg/kg, DKTE 1 mg/kg, vs control
# [7] = FQSE 10 mg/kg, ACZ-10 0.6 mg/kg
molecule,measurement,setting,value
CC(=O)[C@H]1CC[C@H]2[C@@H]3CC[C@H]4C[C@H](O)CC[C@]4(C)[C@H]3CC[C@]12C [Allopregnanolone],Amount of bound [3H] FQSE after pre-incubation compared to control level,[1],100.90% and 103.18%
CC(C)(C)OC(=O)c1ncn2c1[C@@H]1CCCN1C(=O)c1c(Br)cccc1-2 [Bretanezil],Amount of bound [3H] FQSE after pre-incubation compared to control level,[1],94.79% and 104.51%
CCCCCCN(CCCCCC)C(=O)Cc1c(-c2ccc(F)cc2)[nH]c2ccccc12 [FGIN-1-27],Amount of bound [3H] FQSE after pre-incubation compared to control level,[1],102.65% and 102.33%
COCCCC/C(=N\OCCN)c1ccc(C(F)(F)F)cc1 [Fluvoxamine],increase of the time spent in the upper part,"zebrafish (Danio rerio) [2]; FQSE 10 mg/kg, fluvoxamine 5 mg/kg",more than 80%
same,average distance covered / track length (locomotor activity),zebrafish (Danio rerio) [2],did not demonstrate any significant effects
same,increase of the time spent under light,zebrafish (Danio rerio) [2]; fluvoxamine 5 mg/kg,about 6.8 times
same,increase of the time spent under light,zebrafish (Danio rerio) [2]; fluvoxamine 10 mg/kg,about 7.2 times
same,time spent at the surface of the aquarium,zebrafish (Danio rerio) [2]; ACZ-10 0.6 mg/kg,statistically significant increase
Oc1noc2c1CCNC2 [Gaboxadol],Amount of bound [3H] FQSE after pre-incubation compared to control level,[1],99.31% and 100.25%
O=C(O)C1=CCNCC1 [Isoguvacine],Amount of bound [3H] FQSE after pre-incubation compared to control level,"[1]; 10^−4M, 1 hour preincubation, 25 minutes incubation",102.56%
same,Amount of bound [3H] FQSE after pre-incubation compared to control level,"[1]; 10^−5M, 1 hour preincubation, 25 minutes incubation",104.33%
same,IC50,"[1]; Series 5, 25 and 50 minutes at room temperature, read-out: IC50 with respect to [3H]-FQSE binding",> 100 µM
CNC1(c2ccccc2Cl)CCCCC1=O (stereo not shown) [Ketamine],immobility,Sprague Dawley rats,196.4 ± 8.9 s
same,mobility,Sprague Dawley rats,103.6 ± 8.9 s
O=C(c1ccc(F)cc1)C1CCN(CCn2c(=O)[nH]c3ccccc3c2=O)CC1 [Ketanserin],IC50,"[1]; 25 min incubation at RT, read-out: IC50 with respect to [3H]-FQSE binding",> 100 µM
Cn1ncnc1COc1nn2c(-c3c(F)cccc3F)nnc2cc1C1CCC1 [MK0343],Amount of bound [3H] FQSE after pre-incubation compared to control level,[1],98.58% and 104.65%
CC(=O)[C@H]1CC[C@H]2[C@@H]3CC=C4C[C@@H](O)CC[C@]4(C)[C@H]3CC[C@]12C [Pregnenolone],Amount of bound [3H] FQSE after pre-incubation compared to control level,[1],87% and 81%
same,IC50,"[1]; RT, 50 min, read-out: IC50 after different incubation times: 50 min",36 ± 0.2 µM
same,IC50,"[1]; RT, 1 h 30 min, read-out: IC50 after different incubation times: 1 h 30 min",75 ± 0.3 µM
same,IC50,"[1]; RT, 1 h, read-out: IC50 after different incubation times: 1 h",77 ± 0.2 µM
same,IC50,[1]; read-out: IC50 for the [3H]-FQSE binding sites in rat cortex membranes,~100 µM
O=C(N/N=C/c1ccccc1O)c1ccccc1O [SCS],Amount of bound [3H] FQSE after pre-incubation compared to control level,[1],93.93% and 104.58%
Cn1c2ccc(F)cc2c2c(C(=O)N3CCCC3)cn(-c3ccccc3)c(=O)c21 [SL 651498],Amount of bound [3H] FQSE after pre-incubation compared to control level,[1],101.36% and 106.98%
CC1(C)CC(=O)c2c(SCCO)sc(-c3nccs3)c2C1 [TB21007],Amount of bound [3H] FQSE after pre-incubation compared to control level,[1],103.14% and 105.28%
"C[C@]12CC[C@@H](O)C[C@@H]1CC[C@@H]1[C@@H]2CC[C@]2(C)[C@@H](C(=O)CO)CC[C@@H]12 [THDOC, tetrahydrodeoxycorticosterone; 3α,21-dihydroxy-5α-pregnan-20-one]",Amount of bound [3H] FQSE after pre-incubation compared to control level,[1],100.59% and 103.38%
"DKTE: tetrapeptide D, K, T, E",latent period of visiting the bottom of the aquarium,zebrafish (Danio rerio) [2]; DKTE 1 mg/kg,increase
same,average distance covered / track length (locomotor activity),zebrafish (Danio rerio) [2],did not affect
same,change in behavior / efficacy in the light/dark box test,"zebrafish (Danio rerio) [3]; fluvoxamine 5 and 10 mg/kg, DKTE 1 mg/kg",no observed efficacy
same,latent period of visiting the shoal,zebrafish (Danio rerio) [4]; DKTE 1 mg/kg,statistically significant increase
same,time spent in the compartment near the shoal,zebrafish (Danio rerio) [4]; [6],at the level of tendency
same,time spent outside the shoaling compartment (near the wall opposite to the shoal),"zebrafish (Danio rerio) [4]; diazepam 5 mg/kg, FQSE 10 mg/kg, DKTE 1 mg/kg, vs control",statistically significant increase
same,"basic behavioral parameters in open field, light/dark box and shoaling tests",zebrafish (Danio rerio) [5],did not cause any statistically significant changes
FLPY: tetrapeptide used as a negative control,"basic behavioral parameters in open field, light/dark box and shoaling tests",zebrafish (Danio rerio) [5],"neither of the doses of FLPY (SEQ ID NO:36), induced statistically significant changes"
"WDQV: tetrapeptide W, D, Q, V",average distance covered / track length (locomotor activity),zebrafish (Danio rerio) [2],no influence
same,time spent in the dark compartment,"zebrafish (Danio rerio) [3]; FQSE 10 mg/kg, WDQV 10 mg/kg",reduction
same,time spent in the light compartment,"zebrafish (Danio rerio) [3]; diazepam 5 mg/kg, FQSE 10 mg/kg, WDQV 10 mg/kg",increase
same,"basic behavioral parameters in open field, light/dark box and shoaling tests",zebrafish (Danio rerio) [5],no significant effects
same,behavior in tests other than the light/dark box,zebrafish (Danio rerio) [5]; WDQV 10 mg/kg,did not reveal any effect
"YLGYLEQLLR [ACZ-10, L-tyrosyl-L-leucyl-glycyl-L-tyrosyl-L-leucyl-L-alpha-glutamyl-L-glutaminyl-L-leucyl-L-leucyl-L-arginine]",latent period of leaving the bottom,zebrafish (Danio rerio) [2]; [7],decreased significantly
same,time spent in the upper part of the aquarium,zebrafish (Danio rerio) [2]; [7],did not affect
same,average distance covered / track length (locomotor activity),zebrafish (Danio rerio) [2],did not demonstrate any significant effects
same,time spent at the surface of the aquarium,zebrafish (Danio rerio) [2]; ACZ-10 0.6 mg/kg,approximately twofold increase
same,time spent in the compartment near the shoal,zebrafish (Danio rerio) [4]; [6],statistically significant decrease
"YPFPGPI [BCM-7, L-tyrosyl-L-prolyl-L-phenylalanyl-L-prolyl-glycyl-L-prolyl-L-isoleucine]",average distance covered / track length (locomotor activity),zebrafish (Danio rerio) [2],slight increase
same,time spent in the compartment near the shoal,zebrafish (Danio rerio) [4]; [6],decrease
same,time spent outside the shoaling compartment,"zebrafish (Danio rerio) [4]; diazepam 1.25 mg/kg, BCM-7 5 mg/kg",did not demonstrate a statistically significant effect
